Data from patent publication US20070122830A1, “Prohibitin-directed diagnostics and therapeutics for cancer and chemotherapeutic drug resistance” (Aurelium BioPharma Inc., priority 2005, published 2007).

Test system: prohibitin
Assay: Prohibitin silencing by siRNA in MDA cells, anti-prohibitin immunoblot
Format: cell-based, human
Details: for decrease in prohibitin expression: MDA cell lines
Method: Cell extracts from drug-resistant and drug-sensitive cell lines were prepared to determine the expression levels of potential therapeutic targets in drug-resistant cells. Briefly, cultured cells were rinsed 2 times with 15 ml of 1× phosphate buffered saline (“PBS”), and harvested by trypsinization. Cells were collected in a 15 ml tube by centrifugation at 1000 rpm for 5 min. The supernatant was discarded and cells were washed 3 times with 1×PBS. The cell pellet was transferred to an Eppendorf tube and […] of 1×PBS were added. Cells were centrifuged 5 min. at 3000 rpm in an Eppendorf Microfuge. The supernatant was removed and cells were then lysed in […] of lysis buffer (50 mM Tris, pH 7.5, 150 mM NaCl, 1% NP-40, 0.5% sodium deoxycholate), containing protease inhibitors ([…], […] benzamidine, 0.2 mM PMSF) and incubated 5 min. on ice. The cell lysates were then centrifuged at 14,000×g for 10 min. at 4° C. The protein concentration of the supernatants was determined by the DC Protein assay (BioRad, Hercules, Calif.). Samples were subsequently stored at −80° C. until ready for analysis.
Total cell lysates were thawed and then incubated with 1 U/ml DNAse I (New England BioLabs, Inc., Beverly, Mass.), 5 mM MgCl2 (final concentration) for 2 hours on ice. Their protein concentration was determined using the RC DC protein assay kit from BIORAD according to manufacturer's instructions (BioRad Laboratories, Hercules, Calif.) (see also Lowry et al., (1951) J. Biol. Chem. 193: 265-275). Equivalent amounts of proteins ([…]) from total cell extracts from sensitive (MCF7, MDA-MB-231) and chemotherapeutic drug-resistant cells (MCF7/AR and MDA-MB-231/AR) were analyzed by polyacrylamide gel electrophoresis followed by blotting to a nitrocellulose membrane. The membrane was subsequently contacted with an anti-prohibitin antibody obtained from Abcam, Inc., Cambridge, Mass. The immunoblots were incubated with an anti-IgG secondary antibody and visualized using horseradish peroxidase using the manufacturer's protocol (Bio-Rad Laboratories, Hercules, Calif.).
To establish the importance of prohibitin to the expression of the drug-resistant phenotype in MDA cell lines, prohibitin expression was silenced using RNAi. Briefly, the following siRNA duplexes targeting the human prohibitin mRNA were designed and purchased either from Ambion (Austin, Tex.) or Invitrogen (Carlsbad, Calif.). […]
The siRNA duplex was predesigned, synthesized with 3′TT overhangs, purified and annealed by Ambion (Austin, Tex.). […] Transfection efficiencies were typically evaluated 24-48 hrs post transfection using a fluorescence microscope. […]

## prohibitin siRNA: siRNA duplex to human prohibitin mRNA nt 425-443; sense 5′-GGAAGUGGUCUGUCUGUUAtt-3′, antisense 5′-UAACAGACAGACCACUUCCtt-3′ (sense GGAAGUGGUCUGUCUGUUATT; antisense UAACAGACAGACCACUUCCTT; chemistry not given here)
Four days post-treatment, FIG. 2
  decrease in prohibitin expression: 43%
Fourth day after treatment, FIG. 3
  decrease in prohibitin expression: 58%
Two days post-treatment, FIG. 2
  decrease in prohibitin expression: 79%
MDA cells, FIG. 5
  additional decrease in prohibitin expression compared to mock silencing: 60%
